Reference: publication PMC10819888, “Benzimidazole-Based Derivatives as Apoptotic Antiproliferative Agents: Design, Synthesis, Docking, and Mechanistic Studies” (Molecules, 2024)

Tests used:
Assay type in all cases: cell-based, human
CCRF-CEM = experiment: NCI-60 five-dose assay; details: CCRF-CEM (Leukemia), 48 h
HOP-62 = experiment: NCI-60 five-dose assay; details: HOP-62 (Non-Small Cell Lung Cancer), 48 h
HOP-92 = experiment: NCI-60 five-dose assay; details: HOP-92 (Non-Small Cell Lung Cancer), 48 h
NCI-H226 = experiment: NCI-60 five-dose assay; details: NCI-H226 (Non-Small Cell Lung Cancer), 48 h
NCI-H322M = experiment: NCI-60 five-dose assay; details: NCI-H322M (Non-Small Cell Lung Cancer), 48 h
NCI-H460 = experiment: NCI-60 five-dose assay; details: NCI-H460 (Non-Small Cell Lung Cancer), 48 h
NCI-H522 = experiment: NCI-60 five-dose assay; details: NCI-H522 (Non-Small Cell Lung Cancer), 48 h
COLO 205 = experiment: NCI-60 five-dose assay; details: COLO 205 (Colon Cancer), 48 h
HT29 = experiment: NCI-60 five-dose assay; details: HT29 (Colon Cancer), 48 h
SF-539 = experiment: NCI-60 five-dose assay; details: SF-539 (CNS Cancer), 48 h
SNB-19 = experiment: NCI-60 five-dose assay; details: SNB-19 (CNS Cancer), 48 h
LOX IMVI = experiment: NCI-60 five-dose assay; details: LOX IMVI (Melanoma), 48 h
MALME-3M = experiment: NCI-60 five-dose assay; details: MALME-3M (Melanoma), 48 h
MDA-MB-435 = experiment: NCI-60 five-dose assay; details: MDA-MB-435 (Melanoma), 48 h
UACC-257 = experiment: NCI-60 five-dose assay; details: UACC-257 (Melanoma), 48 h
UACC-62 = experiment: NCI-60 five-dose assay; details: UACC-62 (Melanoma), 48 h
NCI/ADR-RES = experiment: NCI-60 five-dose assay; details: NCI/ADR-RES (Ovarian Cancer), 48 h
TK-10 = experiment: NCI-60 five-dose assay; details: TK-10 (Renal Cancer), 48 h
BT-549 = experiment: NCI-60 five-dose assay; details: BT-549 (Breast Cancer), 48 h
T-47D = experiment: NCI-60 five-dose assay; details: T-47D (Breast Cancer), 48 h
Leukemia subpanel = experiment: NCI-60 five-dose assay, subpanel
Colon Cancer subpanel = experiment: NCI-60 five-dose assay, subpanel
CNS Cancer subpanel = experiment: NCI-60 five-dose assay, subpanel
Prostate Cancer subpanel = experiment: NCI-60 five-dose assay, subpanel
Breast Cancer subpanel = experiment: NCI-60 five-dose assay, subpanel
[1] = Homo sapiens, read-out: GI50 Conc. per Cell Line
[2] = Homo sapiens, read-out: LC50 (the source's name)

With `O=C(NN=Cc1ccc(Cl)cc1)c1ccc2[nH]c(-c3ccc(Cl)cc3)nc2c1` [Compound 4e, N′-(4-Chlorobenzylidene)-2-(4-chlorophenyl)-1H-benzimidazole-5-carbohydrazide] the TGI (CCRF-CEM) was 9.03 µM, the GI50 (CCRF-CEM; [1]) was 1.43 µM and the CC50 (CCRF-CEM; [2]) was 65.8 µM. It also gave a TGI (HOP-62) of 4.10 µM, a GI50 (HOP-62; [1]) of 1.8 µM and a CC50 (HOP-62; [2]) of 9.32 µM. It also gave a TGI (HOP-92) of 3.53 µM, an LC50 (50% lethal concentration) (HOP-92; Homo sapiens) of 7.47 µM and a GI50 (HOP-92; [1]) of 1.67 µM. The GI50 (NCI-H226; [1]) was 1.77 µM, the CC50 (NCI-H226; [2]) was 6.86 µM and the TGI (NCI-H226) was 3.48 µM. For the same molecule, the GI50 (NCI-H322M; [1]) was 2.15 µM, the CC50 (NCI-H322M; [2]) was 19.8 µM and the TGI (NCI-H322M) was 5.26 µM. The LC50 (NCI-H460; Homo sapiens) was 6.3 µM, the GI50 (NCI-H460; [1]) was 1.56 µM and the TGI (NCI-H460) was 3.13 µM. It also gave a GI50 (NCI-H522; [1]) of 2.24 µM, a CC50 (NCI-H522; [2]) of 77.9 µM and a TGI (NCI-H522) of 5.85 µM. The TGI (COLO 205) was 3.25 µM, the GI50 (COLO 205; [1]) was 1.55 µM and the CC50 (COLO 205; [2]) was 8.82 µM. The TGI (HT29) was 5.47 µM, the GI50 (HT29; Homo sapiens, HT-29, read-out: GI50 Conc. per Cell Line) was 1.97 µM and the CC50 (HT29; Homo sapiens, HT-29, read-out: LC50 (the source's name)) was 44.1 µM. For the same molecule, the GI50 (SF-539; [1]) was 1.7 µM, the CC50 (SF-539; [2]) was 5.93 µM and the TGI (SF-539) was 3.17 µM. The GI50 (SNB-19; [1]) was 2.34 µM, the CC50 (SNB-19; [2]) was 13.3 µM and the TGI (SNB-19) was 5.06 µM. For the same molecule, the GI50 (LOX IMVI; [1]) was 1.57 µM, the CC50 (LOX IMVI; [2]) was 5.5 µM and the TGI (LOX IMVI) was 2.94 µM. The LC50 (MALME-3M; Homo sapiens) was 6.41 µM, the GI50 (MALME-3M; [1]) was 1.55 µM and the TGI (MALME-3M) was 3.15 µM. It also gave a GI50 (MDA-MB-435; [1]) of 1.73 µM, a CC50 (MDA-MB-435; [2]) of 6.49 µM and a TGI (MDA-MB-435) of 3.35 µM. The GI50 (UACC-257; [1]) was 2.14 µM, the CC50 (UACC-257; [2]) was 11.6 µM and the TGI (UACC-257) was 4.72 µM. It also gave a GI50 (UACC-62; [1]) of 1.78 µM, a CC50 (UACC-62; [2]) of 6.49 µM and a TGI (UACC-62) of 3.40 µM. It also gave a GI50 (NCI/ADR-RES; [1]) of 1.83 µM, a CC50 (NCI/ADR-RES; [2]) of 12.7 µM and a TGI (NCI/ADR-RES) of 4.43 µM. It also gave a GI50 (TK-10; [1]) of 2.06 µM, a CC50 (TK-10; [2]) of 8.98 µM and a TGI (TK-10) of 4.30 µM. The TGI (BT-549) was 2.13 µM, the GI50 (BT-549; [1]) was 4.93 µM and the CC50 (BT-549; [2]) was 75.8 µM. It also gave a GI50 (T-47D; Homo sapiens, T47D, read-out: GI50 Conc. per Cell Line) of 1.79 µM, a CC50 (T-47D; Homo sapiens, T47D, read-out: LC50 (the source's name)) of 8.21 µM and a TGI (T-47D) of 3.83 µM. For the same molecule, the GI50 (Leukemia subpanel; Homo sapiens, Leukemia, average sensitivity of all subpanel cell lines, read-out: GI50 Subpanel MID b) was 1.33 µM, the “GI50 Selectivity Ratio (MID a/MID b)” value (Leukemia subpanel; Leukemia subpanel) was 1.35 and the “GI50 Selectivity Ratio (MID a/MID b)” value (Colon Cancer subpanel; Colon Cancer subpanel) was 1.04. The GI50 (Colon Cancer subpanel; Homo sapiens, Colon Cancer, average sensitivity of all subpanel cell lines, read-out: GI50 Subpanel MID b) was 1.72 µM, the “GI50 Selectivity Ratio (MID a/MID b)” value (CNS Cancer subpanel; CNS Cancer subpanel) was 0.92 and the GI50 (CNS Cancer subpanel; Homo sapiens, CNS Cancer, average sensitivity of all subpanel cell lines, read-out: GI50 Subpanel MID b) was 1.94 µM. The GI50 (Prostate Cancer subpanel; Homo sapiens, Prostate Cancer, average sensitivity of all subpanel cell lines, read-out: GI50 Subpanel MID b) was 1.65 µM, the “GI50 Selectivity Ratio (MID a/MID b)” value (Prostate Cancer subpanel; Prostate Cancer subpanel) was 1.08 and the “GI50 Selectivity Ratio (MID a/MID b)” value (Breast Cancer subpanel; Breast Cancer subpanel) was 0.79. The GI50 (Breast Cancer subpanel; Homo sapiens, Breast Cancer, average sensitivity of all subpanel cell lines, read-out: GI50 Subpanel MID b) was 2.27 µM.
